Laboratory results: PubChem BioAssay AID2060893 (Molecular Pharmacology Branch, DTP, NCI, 2025)

Test system: K86415-001-R-J1-PDC complex spheroids, viability
Assay: Anticancer human tumor K86415-001-R-J1-PDC patient-derived lung adenocarcinoma cell line growth inhibition [RAS]
Settings: for IC50: curve of first compound; for viability, T/C: stronger effect = lower value
Summary of the method: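 Tumour cells grown as complex spheroids with HUVEC endothelial cells and mesenchymal stem cells, treated with RAS pathway inhibitor combinations. Each agent spans half-log steps from near clinical Cmax, or 10 microM where Cmax is unknown.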

[1] = second compound 0.000949 µM, first compound 0.0316 µM
[2] = second compound 0.000949 µM, first compound 0.1 µM
[3] = second compound 0.000949 µM, first compound 0.316 µM
[4] = second compound 0.000949 µM, first compound 1 µM
[5] = second compound 0.003 µM, first compound 0.0316 µM
[6] = second compound 0.003 µM, first compound 0.1 µM
[7] = second compound 0.003 µM, first compound 0.316 µM
[8] = second compound 0.003 µM, first compound 1 µM
[9] = second compound 0.00949 µM, first compound 0.0316 µM
[10] = second compound 0.00949 µM, first compound 0.1 µM
[11] = second compound 0.00949 µM, first compound 0.316 µM
[12] = second compound 0.00949 µM, first compound 1 µM
[13] = second compound 0.03 µM, first compound 0.0316 µM
[14] = second compound 0.03 µM, first compound 0.1 µM
[15] = second compound 0.03 µM, first compound 0.316 µM
[16] = second compound 0.03 µM, first compound 1 µM
[17] = second compound 0.0949 µM, first compound 0.0316 µM
[18] = second compound 0.0949 µM, first compound 0.1 µM
[19] = second compound 0.0949 µM, first compound 0.316 µM
[20] = second compound 0.0949 µM, first compound 1 µM
[21] = second compound 0.3 µM, first compound 0.0316 µM
[22] = second compound 0.3 µM, first compound 0.1 µM
[23] = second compound 0.3 µM, first compound 0.316 µM
[24] = second compound 0.3 µM, first compound 1 µM
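Note: spheroids exposed to agents for seven days before readout.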

CC(=O)OC12COC1CC(O)C1(C)C(=O)C(O)C3=C(C)C(OC(=O)C(O)C(NC(=O)OC(C)(C)C)c4ccccc4)CC(O)(C(OC(=O)c4ccccc4)C21)C3(C)C (stereo unspecified) + CCn1c(-c2cccnc2C(C)OC)c2c3cc(ccc31)N1CCOC(CC(NC(=O)C(C(C)C)N(C)C(=O)C3(F)CCN(C(=O)C#CC(C)(C)N(C)C)CC3)C(=O)N3CCCC(N3)C(=O)OCC(C)(C)C2)C1
IC50 (second compound 0.000949 µM): < 31.6 nM
IC50 (second compound 0.003 µM): < 31.6 nM
IC50 (second compound 0.00949 µM): < 31.6 nM
IC50 (second compound 0.03 µM): < 31.6 nM
IC50 (second compound 0.0949 µM): < 31.6 nM
IC50 (second compound 0.3 µM): < 31.6 nM
viability, T/C [1]: 18.7%
viability, T/C [2]: 15.3%
viability, T/C [3]: 11.3%
viability, T/C [4]: 17.3%
viability, T/C (second compound 0.000949 µM, first compound 3.16 µM): 16.2%
viability, T/C (second compound 0.000949 µM, first compound 10 µM): 12.4%
viability, T/C [5]: 15.4%
viability, T/C [6]: 12%
viability, T/C [7]: 11.3%
viability, T/C [8]: 10.1%
viability, T/C (second compound 0.003 µM, first compound 3.16 µM): 12.7%
viability, T/C (second compound 0.003 µM, first compound 10 µM): 9.57%
viability, T/C [9]: 13.6%
viability, T/C [10]: 10.8%
viability, T/C [11]: 12.1%
viability, T/C [12]: 11.7%
viability, T/C (second compound 0.00949 µM, first compound 3.16 µM): 11.5%
viability, T/C (second compound 0.00949 µM, first compound 10 µM): 7.67%
viability, T/C [13]: 10.3%
viability, T/C [14]: 14.9%
viability, T/C [15]: 10.9%
viability, T/C [16]: 11.3%
viability, T/C (second compound 0.03 µM, first compound 3.16 µM): 10.9%
viability, T/C (second compound 0.03 µM, first compound 10 µM): 12.1%
viability, T/C [17]: 11.4%
viability, T/C [18]: 9.46%
viability, T/C [19]: 10.1%
viability, T/C [20]: 10.8%
viability, T/C (second compound 0.0949 µM, first compound 3.16 µM): 6.98%
viability, T/C (second compound 0.0949 µM, first compound 10 µM): 8.55%
viability, T/C [21]: 10.3%
viability, T/C [22]: 7.45%
viability, T/C [23]: 7.7%
viability, T/C [24]: 5.41%
viability, T/C (second compound 0.3 µM, first compound 3.16 µM): 6.82%
viability, T/C (second compound 0.3 µM, first compound 10 µM): 7.01%

CCc1c2c(nc3ccc(O)cc13)-c1cc3c(c(=O)n1C2)COC(=O)[C@]3(O)CC + CCn1c(-c2cccnc2C(C)OC)c2c3cc(ccc31)N1CCOC(CC(NC(=O)C(C(C)C)N(C)C(=O)C3(F)CCN(C(=O)C#CC(C)(C)N(C)C)CC3)C(=O)N3CCCC(N3)C(=O)OCC(C)(C)C2)C1
IC50 (second compound 0.000949 µM): < 0.949 nM
IC50 (second compound 0.003 µM): < 0.949 nM
IC50 (second compound 0.00949 µM): < 0.949 nM
IC50 (second compound 0.03 µM): < 0.949 nM
IC50 (second compound 0.0949 µM): < 0.949 nM
IC50 (second compound 0.3 µM): < 0.949 nM
viability, T/C (second compound 0.000949 µM, first compound 0.000949 µM): 36.7%
viability, T/C (second compound 0.000949 µM, first compound 0.003 µM): 25.1%
viability, T/C (second compound 0.000949 µM, first compound 0.00949 µM): 10.1%
viability, T/C (second compound 0.000949 µM, first compound 0.03 µM): 12.2%
viability, T/C (second compound 0.000949 µM, first compound 0.0949 µM): 9.29%
viability, T/C (second compound 0.000949 µM, first compound 0.3 µM): 3.47%
viability, T/C (second compound 0.003 µM, first compound 0.000949 µM): 11.9%
viability, T/C (second compound 0.003 µM, first compound 0.003 µM): 13.2%
viability, T/C (second compound 0.003 µM, first compound 0.00949 µM): 9.42%
viability, T/C (second compound 0.003 µM, first compound 0.03 µM): 10.6%
viability, T/C (second compound 0.003 µM, first compound 0.0949 µM): 6.9%
viability, T/C (second compound 0.003 µM, first compound 0.3 µM): 2.68%
viability, T/C (second compound 0.00949 µM, first compound 0.000949 µM): 11.8%
viability, T/C (second compound 0.00949 µM, first compound 0.003 µM): 10.5%
viability, T/C (second compound 0.00949 µM, first compound 0.00949 µM): 10.8%
viability, T/C (second compound 0.00949 µM, first compound 0.03 µM): 9.69%
viability, T/C (second compound 0.00949 µM, first compound 0.0949 µM): 7.47%
viability, T/C (second compound 0.00949 µM, first compound 0.3 µM): 3.83%
viability, T/C (second compound 0.03 µM, first compound 0.000949 µM): 10.7%
viability, T/C (second compound 0.03 µM, first compound 0.003 µM): 11.6%
viability, T/C (second compound 0.03 µM, first compound 0.00949 µM): 8.61%
viability, T/C (second compound 0.03 µM, first compound 0.03 µM): 10.2%
viability, T/C (second compound 0.03 µM, first compound 0.0949 µM): 6.38%
viability, T/C (second compound 0.03 µM, first compound 0.3 µM): 2.86%
viability, T/C (second compound 0.0949 µM, first compound 0.000949 µM): 10.8%
viability, T/C (second compound 0.0949 µM, first compound 0.003 µM): 9.6%
viability, T/C (second compound 0.0949 µM, first compound 0.00949 µM): 10.9%
viability, T/C (second compound 0.0949 µM, first compound 0.03 µM): 9.82%
viability, T/C (second compound 0.0949 µM, first compound 0.0949 µM): 3.93%
viability, T/C (second compound 0.0949 µM, first compound 0.3 µM): 2.05%
viability, T/C (second compound 0.3 µM, first compound 0.000949 µM): 13.9%
viability, T/C (second compound 0.3 µM, first compound 0.003 µM): 9.91%
viability, T/C (second compound 0.3 µM, first compound 0.00949 µM): 7.1%
viability, T/C (second compound 0.3 µM, first compound 0.03 µM): 6.45%
viability, T/C (second compound 0.3 µM, first compound 0.0949 µM): 3.04%
viability, T/C (second compound 0.3 µM, first compound 0.3 µM): 2.24%

Nc1ccn(C2OC(CO)C(O)C2(F)F)c(=O)n1 (stereo unspecified) + CCn1c(-c2cccnc2C(C)OC)c2c3cc(ccc31)N1CCOC(CC(NC(=O)C(C(C)C)N(C)C(=O)C3(F)CCN(C(=O)C#CC(C)(C)N(C)C)CC3)C(=O)N3CCCC(N3)C(=O)OCC(C)(C)C2)C1
IC50 (second compound 0.000949 µM): < 3.16 nM
IC50 (second compound 0.003 µM): < 3.16 nM
IC50 (second compound 0.00949 µM): < 3.16 nM
IC50 (second compound 0.03 µM): < 3.16 nM
IC50 (second compound 0.0949 µM): < 3.16 nM
IC50 (second compound 0.3 µM): < 3.16 nM
viability, T/C (second compound 0.000949 µM, first compound 0.00316 µM): 37.9%
viability, T/C (second compound 0.000949 µM, first compound 0.01 µM): 34.3%
viability, T/C [1]: 19.9%
viability, T/C [2]: 27%
viability, T/C [3]: 19.2%
viability, T/C [4]: 9.69%
viability, T/C (second compound 0.003 µM, first compound 0.00316 µM): 15.3%
viability, T/C (second compound 0.003 µM, first compound 0.01 µM): 11.6%
viability, T/C [5]: 10.8%
viability, T/C [6]: 12.3%
viability, T/C [7]: 12%
viability, T/C [8]: 9.95%
viability, T/C (second compound 0.00949 µM, first compound 0.00316 µM): 9.77%
viability, T/C (second compound 0.00949 µM, first compound 0.01 µM): 10%
viability, T/C [9]: 16.4%
viability, T/C [10]: 12.3%
viability, T/C [11]: 11.2%
viability, T/C [12]: 7.94%
viability, T/C (second compound 0.03 µM, first compound 0.00316 µM): 13.3%
viability, T/C (second compound 0.03 µM, first compound 0.01 µM): 11%
viability, T/C [13]: 11.1%
viability, T/C [14]: 9.53%
viability, T/C [15]: 9.66%
viability, T/C [16]: 12.4%
viability, T/C (second compound 0.0949 µM, first compound 0.00316 µM): 11.5%
viability, T/C (second compound 0.0949 µM, first compound 0.01 µM): 10.9%
viability, T/C [17]: 12.8%
viability, T/C [18]: 11.3%
viability, T/C [19]: 7.92%
viability, T/C [20]: 10.5%
viability, T/C (second compound 0.3 µM, first compound 0.00316 µM): 15.4%
viability, T/C (second compound 0.3 µM, first compound 0.01 µM): 12.6%
viability, T/C [21]: 11.2%
viability, T/C [22]: 9.08%
viability, T/C [23]: 8.09%
viability, T/C [24]: 10.1%
